Experimental data taken from ChEMBL document CHEMBL1143687, “Synthesis of analogues of a flexible thiopyrylium photosensitizer for purging blood-borne pathogens and binding mode and affinity studies of their complexes with DNA” (Bioorg Med Chem, 2007).

How the values were obtained:
[1] = Partition coefficient, log P by shake flask method; type: physicochemical; details: octanol/water
[2] = Binding affinity to M13mp19 DNA by spectrophotometric titration method
DNA [3] = assay: Binding affinity to calf thymus DNA by isothermal titration calorimetry; type: nucleic-acid assay; details: Bos taurus
Escherichia coli = assay: Binding affinity to pUC19 DNA assessed as drug concentration to induce plasmid re-supercoiling by topoisomerase 1 DNA unwinding assay
DNA [4] = assay: Binding affinity to calf thymus DNA by spectrophotometric titration method; type: nucleic-acid assay; details: Bos taurus

| SMILES | logP [1] | Kb [2] | Kb (DNA [3]) | Kb (Escherichia coli) | Kb (DNA [4]) |
| --- | --- | --- | --- | --- | --- |
| CN(C)c1ccc(-c2cc(-c3ccc(N(C)C)cc3)[se+]c(C(C)(C)C)c2)cc1 | 1.57 | 2.5 10^4/M | 3.9 10^5/M | 22 10^6/M | 8.7 10^4/M |
| Cc1cc(-c2ccc(N(C)C)cc2)cc(-c2ccc(N(C)C)cc2)[s+]1 | 0.6 | 6.1 10^4/M | 1.7 10^5/M | 66 10^6/M | 5.2 10^4/M |
| CCCc1cc(-c2ccc(N(C)C)cc2)cc(-c2ccc(N(C)C)cc2)[s+]1 | 0.82 | 3.47 10^4/M | 2.4 10^5/M | 45 10^6/M | 5 10^4/M |
| CCc1cc(-c2ccc(N(C)C)cc2)cc(-c2ccc(N(C)C)cc2)[s+]1 | 0.13 | 1.8 10^4/M | – | – | – |
| CCCCc1cc(-c2ccc(N(C)C)cc2)cc(-c2ccc(N(C)C)cc2)[s+]1 | 1.63 | 7.58 10^4/M | – | – | – |
| CN(C)c1ccc(-c2cc(-c3ccc(N(C)C)cc3)[s+]c(C(C)(C)C)c2)cc1 | 1.51 | 0.91 10^4/M | 4.2 10^5/M | 23 10^6/M | 10.1 10^4/M |
| CC(C)c1cc(-c2ccc(N(C)C)cc2)cc(-c2ccc(N(C)C)cc2)[s+]1 | 0.23 | 1.17 10^4/M | – | – | – |
